Measured values taken from patent publication US11471462B2, “Compositions and methods for detecting and treating diabetes” (THE BROAD INSTITUTE, INC., priority 2016, dated 2022).

Tested on: SLC16A11
Assay: Compound treatment, SLC16A11 expression by ddPCR in SNU761 cells
Type: cell-based, human
Details: SNU761 cells; for avg_fc (SLC16A11 expression, compound treated vs DMSO treated cells): same doses and treatment times as in the LINCS dataset
Protocol: A small number of the compounds that made the strongest positive connections to the SLC16A11 gene expression signature were selected and tested. […] Methotrexate was also included, which had been annotated as a dihydrofolate reductase inhibitor. SNU761 cells (derived from a human hepatocellular carcinoma) and NCIH716 cells (derived from a human cecum adenocarcinoma), which both express SLC16A11, were treated with the compounds. The same compound concentrations and treatment times were used as in the LINCS dataset experiments. […] For normalization, a different housekeeper gene, HPRT1, was used and obtained similar results with the mTOR inhibitors (FIGS. 14A and 14B).
From the total list of compounds, 59 readily available compounds were selected from the 79 compounds with the largest connectivity scores to the query signature and 20 middle compounds with connectivity scores centered on 0 (FIG. 15A) and then treated SNU761 cells at the same doses and treatment times as were used in the LINCS dataset. It was expected that the top compounds would be enriched for compounds that increased SLC16A11 expression. […] The results were aligned with the expectations (FIG. 15B). Hierarchical clustering of the SLC16 expression profiles generated by the compound treatments are shown by the heat map in FIG. 15C.
SNU761 (human hepatocellular carcinoma) and NCIH716 (human cecum adenocarcinoma) were cultured in RPMI Medium 1640 supplemented with 10% Fetal Bovine Serum (FBS), 100 μg/ml Streptomycin and 100 U/ml Penicillin. Cells were grown in a humidified CO2 incubator, at 37° C.
For the unbiased approach taken to investigate the compounds that connected to the SLC16A11 gene expression signature, compounds were obtained from compound management at the Broad Institute.
SNU761 and NCIH716 cells were plated into 96 well plates at a density of 20,000 cells per well. Hepatocytes were plated into collagen coated 96 well plates (Corning, 354408) at a density of 50,000 cells per well. After 24 hours, cells were treated with compounds at a final concentration of 10 μM or vehicle control for the appropriate amount of time.
At the time of collection, cells in 96 well plates were lysed by directly adding 50 μL of RLT buffer (Qiagen). 75 μL of AMPure XP beads, diluted by a factor of 5 in polyethylene glycol, were then added to bind nucleic acids. One wash with polyethylene glycol was then performed. DNase treatment (Qiagen) was carried out according to the manufacturer's protocol in a final volume of 50 μL. 100 μL of polyethylene glycol was added after the DNase treatment to crowd nucleic acids back onto the beads. Two washes with 80% ethanol were performed and residual ethanol was removed. RNA was then eluted in water.
RNA was DNase treated and converted into cDNA using the High-Capacity RNA-to-cDNA kit (Thermo Fisher Scientific). The following FAM-labeled TaqMan Real-Time PCR assays (Thermo Fisher Scientific) were used to quantify gene expression: SLC16A11 (Hs00601062_g1), SLC16A13 (Hs00416832_m1), SLC16A1 (Hs01560299_m1). The VIC-labeled TaqMan Real-Time assays TBP (Hs00427620_m1) or HPRT1 (Hs02800695_m1) were used for normalization. Droplets were generated and analyzed using a QX200 Droplet Generator and Reader system (BioRad). Data was extracted using QuantaSoft (BioRad) and analyzed using Microsoft Excel.

| Structure (SMILES) | avg_fc (SLC16A11 expression, compound treated vs DMSO treated cells) | increase in SLC16A11 expression, compound treated compared to DMSO treated cells (unbiased test of 59 top and 20 middle LINCS compounds, LINCS doses and times) |
| --- | --- | --- |
| COc1ccc2c(c1OC)N=C(NC(=O)c1cccnc1)N1CCN=C21 [PIK-90] | 1.487 |  |
| Cc1onc(-c2ccccc2)c1-c1ccc(S(N)(=O)=O)cc1 [valdecoxib] | 1.069 |  |
| CCCS(=O)(=O)Nc1ccc(F)c(C(=O)c2c[nH]c3ncc(-c4ccc(Cl)cc4)cc23)c1F [vemurafenib] | 1.368 |  |
| CO[C@H]1C[C@@H]2CC[C@@H](C)[C@@](O)(O2)C(=O)C(=O)N2CCCC[C@H]2C(=O)O[C@H]([C@H](C)C[C@@H]2CC[C@@H](OP(C)(C)=O)[C@H](OC)C2)CC(=O)[C@H](C)/C=C(\C)[C@@H](O)[C@@H](OC)C(=O)[C@H](C)C[C@H](C)/C=C/C=C/C=C/1C [deforolimus, reference compound] | 1.903 |  |
| Nc1nc(N)c2nc(-c3cccc(O)c3)c(-c3cccc(O)c3)nc2n1 [TG100-115] | 1.086 |  |
| Cn1cnc2c(F)c(Nc3ccc(Br)cc3Cl)c(C(=O)NOCCO)cc21 [selumetinib] | 1.964 |  |
| Nc1nc(Cl)nc2c1ncn2[C@H]1C[C@H](O)[C@@H](CO)O1 [cladribine] | 0.5994 |  |
| Cc1cnc(NC(=O)C2=C(O)c3ccccc3S(=O)(=O)N2C)s1 [meloxicam] | 0.9414 |  |
| COc1cc(Nc2ncc(F)c(Nc3ccc4c(n3)N(COP(=O)(O)O)C(=O)C(C)(C)O4)n2)cc(OC)c1OC [fostamatinib] | 3.274 |  |
| COc1cccc2cc(-c3nc([C@H]4CC[C@H](C(=O)O)CC4)n4ncnc(N)c34)[nH]c12 [OSI-027, trans-4-[4-amino-5-(7 methoxy-1H-indol-2-yl)imidazo[5,1-f][1,2,4]triazin-7-yl]-cyclohexanecarboxylic acid, reference compound] | 3.384 |  |
| c1ccc2c(CCNc3ccc(Nc4ccncc4)cc3)c[nH]c2c1 [serdemetan] | 0.6384 |  |
| N#CC(=C(N)Sc1ccc(N)cc1)c1ccccc1C(F)(F)F [MEK1-2-inhibitor] | 1.414 |  |
| Cc1[nH]c(/C=C2\C(=O)Nc3ccc(S(=O)(=O)N(C)c4cccc(Cl)c4)cc32)c(C)c1C(=O)N1CCN(C)CC1 [SU-11274] | 1.059 |  |
| c1ccc2c(CCNc3ccc(Nc4ccncc4)cc3)c[nH]c2c1 [JNJ-26854165] | 0.5328 |  |
| O=c1cc(N2CCOCC2)oc2c1ccc1ccccc12 [NU-7026] | 1.12 |  |
| Nc1ccc(-c2cccc3c(=O)cc(N4CCOCC4)oc23)cc1 [PI-828] | 1.336 |  |
| N#CC(C#N)=C(N)/C(C#N)=C/c1ccc(O)cc1 [tyrphostin-AG-112] | 0.7594 |  |
| COc1ccc(CNC(=O)/C=C/c2ccc3[nH]cc(CCN(C)C)c3c2)cc1 [GR-46611] | 0.6609 |  |
| Oc1cccc(-c2nc(N3CCOCC3)c3oc4ncccc4c3n2)c1 [PI-103, 3-(6-morpholin-4-yl-8-oxa-3,5,10-triazatricyclo[7.4.0.0^2,7]trideca-1 (9),2(7),3,5,10,12-hexaen-4-yl)phenol, reference compound] | 2.453 |  |
| NC(=O)Nc1cc(-c2cccc(F)c2)sc1C(=O)N[C@H]1CCCNC1 [AZD-7762, 3-[(aminocarbonyl)amino]-5-(3-fluorophenyl)-N-(3S)-3-piperidinyl-2-thiophenecarboxamide, reference compound] | 4.924 | about 5 fold |
| COC(=O)c1c(-c2cc(OC)c(OC)c(OC)c2)c2ccnc(OCc3ncccn3)c2c(=O)n1Cc1ccnc(C)c1 [T-0156] | 0.8378 |  |

| Structure (SMILES) | avg_fc (SLC16A11 expression, compound treated vs DMSO treated cells) | increase in SLC16A11 expression, compound treated compared to DMSO treated cells (unbiased test of 59 top and 20 middle LINCS compounds, LINCS doses and times) |
| --- | --- | --- |
| COc1cccc(-c2cc(=O)c3ccccc3o2)c1N [PD-98059] | 0.7929 |  |
| c1nc2nc(Nc3ccc(N4CCOCC4)cc3)nc(NC3CCCCC3)c2[nH]1 [reversine] | 3.235 |  |
| O=C1NC(=O)/C(=C\c2ccc3nccnc3c2)S1 [AS-605240] | 0.7908 |  |
| OCCOCCN1CCN(C2=Nc3ccccc3Sc3ccccc32)CC1 [quetiapine] | 1.019 |  |
| CCC(=O)N1CCN(c2ccc(-n3c(=O)ccc4cnc5ccc(-c6cnc7ccccc7c6)cc5c43)cc2C(F)(F)F)CC1 [torin-1] | 2.84 |  |
| Cc1nc2c(c(=O)[nH]1)CSCC2 [DR-2313] | 1.127 |  |
| CC(C)COCC(CN(Cc1ccccc1)c1ccccc1)N1CCCC1 (stereo not drawn) [bepridil] | 0.8545 |  |
| O=C1NC(=O)/C(=C/c2ccc3c(c2)OC(F)(F)O3)S1 [AS-604850] | 1.009 |  |
| COC(=O)Nc1ccc(-c2nc(N3CCOCC3)c3cnn(C4CCN(C(=O)OC)CC4)c3n2)cc1 [WYE-354, methyl 4-[6-[4-(methoxycarbonylamino)phenyl]-4-morpholin-4-ylpyrazolo[3,4-d]pyrimidin-1-yl]piperidine-1-carboxylate, reference compound] | 3.517 |  |
| CO[C@H]1C[C@@H]2CC[C@@H](C)[C@@](O)(O2)C(=O)C(=O)N2CCCC[C@H]2C(=O)O[C@H]([C@H](C)C[C@@H]2CC[C@@H](O)[C@H](OC)C2)CC(=O)[C@H](C)/C=C(\C)[C@@H](O)[C@@H](OC)C(=O)[C@H](C)C[C@H](C)/C=C/C=C/C=C/1C [rapamycin, reference compound] | 1.662 |  |
| O=C1CC[C@@]2(O)[C@H]3Cc4ccc(O)c5c4[C@@]2(CCN3CC2CC2)[C@H]1O5 [naltrexone] | 1.183 |  |
| COCCCOc1cc(C[C@@H](C[C@H](N)[C@@H](O)C[C@H](C(=O)NCC(C)(C)C(N)=O)C(C)C)C(C)C)ccc1OC [aliskiren] | 0.8853 |  |
| Clc1cncc(N2CCNCC2)n1 [MK-212] | 0.8022 |  |
| O=C1NC(=O)/C(=C/c2ccc3nccc(-c4ccncc4)c3c2)S1 [GSK-1059615] | 1.25 |  |
| CCCC[C@@H](C=O)NC(=O)[C@H](CC(C)C)NC(=O)OCc1ccccc1 [calpeptin] | 1.034 |  |
| O=C(NC[C@H](O)CO)c1ccncc1Nc1ccc(I)cc1F [AS-703026] | 1.68 |  |
| Cc1cc([C@@H](C)Nc2ccccc2C(=O)O)c2nc(N3CCOCC3)cc(=O)n2c1 [AZD-6482] | 2.176 |  |
| Cc1cccc(CCN2CCC(C(=O)c3ccc(NS(C)(=O)=O)cc3)CC2)n1 [E-4031] | 0.9411 |  |
| Cn1c(=O)n(-c2ccc(C(C)(C)C#N)cc2)c2c3cc(-c4cnc5ccccc5c4)ccc3ncc21 [NVP-BEZ235, 2-methyl-2-[4-(3-methyl-2-oxo-8-quinolin-3-ylimidazo[4,5-c]quinolin-1-yl)phenyl]propanenitrile, reference compound] | 2.779 |  |
| NC1(c2ccc(-c3nc4ccn5c(=O)[nH]nc5c4cc3-c3ccccc3)cc2)CCC1 [MK-2206] | 0.6972 |  |
